Assay results reported in patent US8865675B2, “Compositions and methods for silencing apolipoprotein B” (Protiva Biotherapeutics, Inc., priority 2010, dated 2014).

Key:
liver ApoB mRNA = assay: Liver ApoB mRNA knockdown after IV SNALP administration, branched DNA (QuantiGene) assay relative to GAPDH; assay type: in vivo, Balb/c mice; settings: for ApoB silencing activity compared to SNALP containing C2K when administered at the same dose: 0.033 or 0.05 mg/kg IV, 48 h (Table 6); for ApoB knockdown relative to PBS control (%): 1:57 SNALP with ApoB-10164 siRNA, ApoB:GAPD, 48 h, n = 3; for KD50 compared to SNALP containing the C2K benchmark cationic lipid: 48 h (FIG. 2, FIG. 3)
Procedure: (§1) For dose response studies, SNALP formulations were administered by IV injection at 0.01 mg/kg, 0.033 mg/kg, or 0.1 mg/kg into female Balb/c mice (n=3 per group). Liver ApoB mRNA levels were evaluated at 48 hours after SNALP administration by a branched DNA assay (QuantiGene assay) to assess ApoB mRNA relative to the housekeeping gene GAPDH.
as §1, with “Each” for “For dose response studies,”, “formulation (6:1 L:D) was” for “formulations were”, “intravenous (IV)” for “IV”, “at” for “at 0.01 mg/kg, 0.033 mg/kg, or”
SNALP formulations were administered by IV injection at 0.05 mg/kg into female Balb/c mice (n=3 per group). Liver ApoB mRNA levels were evaluated at 48 hours after SNALP administration by a branched DNA assay (QuantiGene assay) to assess ApoB mRNA relative to the housekeeping gene GAPDH.
For these dose response studies, SNALP formulations were administered by IV injection at 0.05, 0.10, or 0.25 mg/kg for DLinDMA and at 0.01, 0.025, or 0.05 mg/kg for C2K or MC3 into female Balb/c mice (n=4 per group). Liver ApoB mRNA levels were evaluated at 48 hours after SNALP administration (Error bars=SD).
SNALP formulations were administered by IV injection at 0.033 mg/kg or at 0.05 mg/kg into Balb/c mice (n=3 per group). Liver ApoB mRNA levels were evaluated at 48 hours after SNALP administration by a branched DNA assay (QuantiGene assay) to assess ApoB mRNA relative to the housekeeping gene GAPDH.

[1] = Tolerability assessments of SNALP in mice (liver enzymes, body weight, neutrophil to lymphocyte ratio etc.); assay type: in vivo
[2] = 1:57 SNALP, 0.01, 0.033 or 0.1 mg/kg IV, female Balb/c mice, 48 h (FIG. 1, FIG. 3)
[3] = 1:57 SNALP, 0.01, 0.033 or 0.1 mg/kg IV, female Balb/c mice

Q: For CCC1CC1CC1CC1CC1CC1CCCCCCCCC1(CCCCCCCCC2CC2CC2CC2CC2CC2CC)OCC(CCN(C)C)O1 (stereo not shown) [Compound 46, CP-DLen-C2K-DMA], which “potency in silencing ApoB mRNA expression” value (liver ApoB mRNA; 1:57 SNALP, 0.01, 0.033 or 0.1 mg/kg IV, female Balb/c mice, 48 h (FIG. 3)) is on record?
A: Its value is “considerable potency”.

Q: And the “body weight loss compared to mice administered SNALP containing C2K” value ([1]; mouse, in vivo)?
A: Its value is “less body weight loss”.

Q: What about the “increase in liver enzyme levels compared to mice administered SNALP containing C2K” value ([1]; mouse, in vivo) of the same compound?
A: Its value is “lower increase in liver enzyme levels”.

Q: And the “neutrophil to lymphocyte ratio compared to mice administered SNALP containing C2K” value ([1]; mouse, in vivo)?
A: Its value is “more favorable neutrophil to lymphocyte ratio”.

Q: And the “toxicity profile compared to SNALP containing C2K” value ([1]; various tolerability assessments in vivo)?
A: Its value is “unexpectedly more favorable toxicity profile”.

Q: Which “ApoB silencing activity compared to SNALP containing C2K when administered at the same dose” value (liver ApoB mRNA; 1:57 SNALP, Balb/c mice) does the source give for CCCCC/C=C\C/C=C\CCCCCCCCC(CCCCCCCC/C=C\C/C=C\CCCCC)OCCCCN(C)C [Compound 15, MC4 Ether] here?
A: The value was “unexpectedly improved ApoB silencing activity”.

Q: With “(6Z,9Z,28Z,31Z)-heptatriaconta-6,9,28,31-tetraen-18-yl 2-(dimethylamino)ethyl(ethyl)carbamate [Compound 29]” as the compound, how does the “ApoB knockdown relative to PBS control (%)” value (liver ApoB mRNA; 0.05 mg/kg IV, Balb/c mice) read?
A: Its value is −59%.

Q: With CCCCC/C=C\C/C=C\CCCCCCCCC(CCCCCCCC/C=C\C/C=C\CCCCC)OCCCN(C)C [Compound 13, 3-((6Z,9Z,28Z,31Z)-heptatriaconta-6,9,28,31-tetraen-19-yloxy)-N,N-dimethylpropan-1-amine] as the compound, how does the “ApoB silencing activity compared to SNALP containing the C2K benchmark cationic lipid” value (liver ApoB mRNA; 1:57 SNALP, 0.05 mg/kg IV, female Balb/c mice, 48 h (FIG. 5)) read?
A: The value was “unexpectedly improved ApoB silencing activity”.

Q: What about the “ApoB silencing activity compared to SNALP containing C2K when administered at the same dose” value (liver ApoB mRNA; 1:57 SNALP, Balb/c mice) of the same compound?
A: The value was “unexpectedly improved ApoB silencing activity”.

Q: With CC/C=C\C/C=C\C/C=C\CCCCCCCCC(CCCCCCCC/C=C\C/C=C\C/C=C\CC)OC(=O)CCCN(C)C [Compound 4, LenMC3] as the compound, how does the “ApoB silencing activity compared to SNALP containing the C2K benchmark cationic lipid” value (liver ApoB mRNA; [2]) read?
A: The value was “improved ApoB silencing activity”.

Q: And the “KD50 compared to SNALP containing the C2K benchmark cationic lipid” value (liver ApoB mRNA; [3])?
A: Its value is “substantially lower KD50 values”.

Q: And the “ApoB silencing activity compared to SNALP containing C2K when administered at the same dose” value (liver ApoB mRNA; 1:57 SNALP, Balb/c mice)?
A: Its value is “unexpectedly improved ApoB silencing activity”.

Q: For CC/C=C\CCCN(CCCN(C)C)C(=O)OC(CCCCCCC/C=C\C/C=C\CCCCC)CCCCCCCCC/C=C\C/C=C\CCCCC (stereo not shown) [Compound 28, (6Z,9Z,28Z,31Z)-heptatriaconta-6,9,28,31-tetraen-18-yl 3-(dimethylamino)propyl((Z)-hept-4-enyl)carbamate], which “ApoB silencing activity compared to SNALP containing C2K when administered at the same dose” value (liver ApoB mRNA; 1:57 SNALP, Balb/c mice) is on record?
A: The value was “unexpectedly improved ApoB silencing activity”.

Q: Which results are given for CCCCC/C=C\C/C=C\C/C=C\CCCCCC(CCCCC/C=C\C/C=C\C/C=C\CCCCC)OC(=O)CCCN(C)C [Compound 8, γ-LenMC3]?
A: ApoB silencing activity compared to SNALP containing the C2K benchmark cationic lipid (liver ApoB mRNA; [2]): improved ApoB silencing activity; KD50 compared to SNALP containing the C2K benchmark cationic lipid (liver ApoB mRNA; [3]): substantially lower KD50 values; ApoB silencing activity compared to SNALP containing C2K when administered at the same dose (liver ApoB mRNA; 1:57 SNALP, Balb/c mice): unexpectedly improved ApoB silencing activity

Q: For “siApoB-10: APOB siRNA of sense strand SEQ ID NO: 4 and antisense strand SEQ ID NO: 11 with 2′OMe nucleotides (sense AGNGNCANCACACNNAANACC; antisense UAUUCAGUGUGAUGACACUUG; 2'OMe nucleotides, chemistry not fully specified)”, which “silencing activity of more highly 2′OMe-modified APOB siRNA relative to siApoB-8” value (liver ApoB mRNA; modifications increased from 7 in siApoB-8 to 13 in siApoB-10, 1:57 SNALP, Balb/c mice, 48 h (FIG. 6)) is on record?
A: The value was “does not decrease activity”.

Q: For CCCCC/C=C\C/C=C\CCCCCCCCCC(CCCCCCC/C=C\C/C=C\CCCCC)OC(=O)N(CCCCCC)CCCN(C)C (stereo not shown) [Compound 27, (6Z,9Z,28Z,31Z)-heptatriaconta-6,9,28,31-tetraen-18-yl 3-(dimethylamino)propyl(hexyl)carbamate], which “ApoB silencing activity compared to SNALP containing C2K when administered at the same dose” value (liver ApoB mRNA; 1:57 SNALP, Balb/c mice) is on record?
A: Its value is “unexpectedly improved ApoB silencing activity”.

Q: Which “ApoB knockdown relative to PBS control (%)” value (liver ApoB mRNA; 0.033 mg/kg IV, Balb/c mice) does the source give for CCCCC/C=C\C/C=C\CCCCCCCCC(CCCCCCCC/C=C\C/C=C\CCCCC)OC(=O)N(C)CCCN(C)C [Compound 10, MC3MC] here?
A: The value was −50%.

Q: Which “ApoB silencing activity compared to SNALP containing C2K when administered at the same dose” value (liver ApoB mRNA; 1:57 SNALP, Balb/c mice) does the source give for CC/C=C\C/C=C\C/C=C\CCCCCCCCC(CCCCCCCC/C=C\C/C=C\C/C=C\CC)OCCCCN(C)C [Compound 35, 4-((3Z,6Z,9Z,28Z,31Z,34Z)-heptatriaconta-3,6,9,28,31,34-hexaen-19-yloxy)-N,N-dimethylbutan-1-amine] here?
A: The value was “unexpectedly improved ApoB silencing activity”.

Q: What does the source list for CCCCC/C=C\C/C=C\CCCCCCCCC(CCCCCCCC/C=C\C/C=C\CCCCC)OC(=O)CCCN(C)C [Compound 1, (6Z,9Z,28Z,31Z)-heptatriaconta-6,9,28,31-tetraen-19-yl 4-(dimethylamino)butanoate]?
A: potency versus the corresponding DLinDMA or C2K SNALP formulations, comparison of KD50 values (liver ApoB mRNA; 1:57 SNALP containing siApoB-8 or siApoB-10, female Balb/c mice, 48 h (FIG. 6)): more potent; ApoB silencing activity compared to SNALP containing the C2K benchmark cationic lipid (liver ApoB mRNA; [2]): improved ApoB silencing activity; KD50 compared to SNALP containing the C2K benchmark cationic lipid (liver ApoB mRNA; [3]): substantially lower KD50 values; ApoB silencing activity compared to SNALP containing C2K when administered at the same dose (liver ApoB mRNA; 1:57 SNALP, Balb/c mice): unexpectedly improved ApoB silencing activity; potency in silencing ApoB expression in vivo compared to SNALP containing DLin-C2K-DMA (C2K) or DLinDMA (liver ApoB mRNA; 1:57 lipid particle): unexpectedly more potent
